Target: JAK1 (Homo sapiens (Human), UniProt P23458)
Assay: Analysis of JAK1 activity inhibition ability (ADP-Glo Kinase Assay)
Assay type: biochemical
Settings: JAK1 enzyme, ADP-Glo luminescence, ATP 250 uM, IRS-itide substrate, 30° C. 40 minutes; read-out: IC50
Procedure, shortened: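 JAK1 enzyme, IRS-itide substrate (40 ng/mL) and 250 uM ATP, both as prepared in kinase buffer (Tris-HCl pH 7.5, MgCl2, BSA, DTT), reacted with compound 40 min at 30 °C. ADP formed was detected by ADP-Glo luminescence; IC50 is the concentration giving 50% inhibition versus control.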

JAK1, sequence (P23458 whole entry): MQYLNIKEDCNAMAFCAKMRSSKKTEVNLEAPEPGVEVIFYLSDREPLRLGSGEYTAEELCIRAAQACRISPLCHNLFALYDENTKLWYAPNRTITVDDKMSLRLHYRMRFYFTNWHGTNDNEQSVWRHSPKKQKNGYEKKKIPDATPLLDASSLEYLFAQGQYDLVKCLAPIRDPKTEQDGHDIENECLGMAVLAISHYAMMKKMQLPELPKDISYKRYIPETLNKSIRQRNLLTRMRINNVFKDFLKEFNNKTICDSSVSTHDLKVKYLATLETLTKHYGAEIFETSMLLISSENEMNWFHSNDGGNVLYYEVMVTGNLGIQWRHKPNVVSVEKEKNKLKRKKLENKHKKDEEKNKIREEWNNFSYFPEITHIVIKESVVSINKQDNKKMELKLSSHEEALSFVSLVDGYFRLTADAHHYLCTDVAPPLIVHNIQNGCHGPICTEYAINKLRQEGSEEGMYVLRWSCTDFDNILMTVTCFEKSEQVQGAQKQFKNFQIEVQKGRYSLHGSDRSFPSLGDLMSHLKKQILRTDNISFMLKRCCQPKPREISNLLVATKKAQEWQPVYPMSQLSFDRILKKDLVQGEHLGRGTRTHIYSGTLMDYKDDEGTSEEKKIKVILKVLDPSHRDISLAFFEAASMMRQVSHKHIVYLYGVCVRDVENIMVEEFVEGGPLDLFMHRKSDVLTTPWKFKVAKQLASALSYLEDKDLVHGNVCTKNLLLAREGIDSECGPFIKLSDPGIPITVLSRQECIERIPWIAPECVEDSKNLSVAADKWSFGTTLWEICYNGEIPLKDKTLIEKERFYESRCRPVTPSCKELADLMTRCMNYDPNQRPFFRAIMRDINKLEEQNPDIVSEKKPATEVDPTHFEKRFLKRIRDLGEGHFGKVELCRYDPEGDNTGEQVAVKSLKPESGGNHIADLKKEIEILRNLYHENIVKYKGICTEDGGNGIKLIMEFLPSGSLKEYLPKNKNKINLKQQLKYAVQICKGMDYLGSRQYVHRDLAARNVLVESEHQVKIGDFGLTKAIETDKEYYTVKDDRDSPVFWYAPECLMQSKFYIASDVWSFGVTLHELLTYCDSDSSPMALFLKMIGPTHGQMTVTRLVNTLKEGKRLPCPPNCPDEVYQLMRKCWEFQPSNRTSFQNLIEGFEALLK

SMILES	IC50 [µM]
N#CCC1(N2CC=C(c3cc(NC(=O)C4CC4)nc4[nH]ccc34)CC2)COC1 [Example 612, N-(4-(1-(3-(cyanomethyl)oxetan-3-yl)-1,2,3,6-tetrahydropyridin-4-yl)-1H-pyrrolo[2,3-b]pyridine-6-yl) cyclopropanecarboxamide]	> 0.2
CCCS(=O)(=O)Nc1ccc(-c2cc(NC(=O)C3CC3)nc3[nH]ccc23)c(C(=O)OC)c1 [Example 141, methyl 2-(6-(cyclopropanecarboxamido)-1H-pyrrolo[2,3-b]pyridin-4-yl)-5-(propylsulfonamido)benzoate]	> 0.2
O=C(Nc1cc(-c2ccc(C(=O)N3CCS(=O)(=O)CC3)cc2)c2cc[nH]c2n1)C1CC1 [Example 520, N-(4-(4-(1,1-dioxidothiomorpholine-4-carbonyl)phenyl)-1H-pyrrolo[2,3-b]pyridin-6-yl)cyclopropanecarboxamide]	> 0.2
O=C(Nc1cc(-c2ccc(NS(=O)(=O)c3ccc(Cl)c(C(F)(F)F)c3)cc2)c2cc[nH]c2n1)C1CC1 [Example 33, N-(4-(4-((4-chloro-3-(trifluoromethyl)phenyl)sulfonamido)phenyl)-1H-pyrrolo[2,3-b]pyridin-6-yl)cyclopropanecarboxamide]	0.02 to 0.2
O=C(Nc1cc(-c2ccc(NS(=O)(=O)c3cccc(F)c3)cc2)c2cc[nH]c2n1)C1CC1 [Example 25, N-(4-(4-((3-fluorophenyl)sulfonamido)phenyl)-1H-pyrrolo[2,3-b]pyridin-6-yl)cyclopropanecarboxamide]	< 0.02
O=C(Nc1cc(-c2ccc(CC(=O)N3CCS(=O)(=O)CC3)c(F)c2)c2cc[nH]c2n1)C1CC1 [Example 559, N-(4-(4-(2-(1,1-dioxidothiomorpholino)-2-oxoethyl)-3-fluorophenyl)-1H-pyrrolo[2,3-b]pyridin-6-yl)cyclopropanecarboxamide]	0.02 to 0.2
O=C(Nc1nc(-c2ccc(NCc3ccc(Cl)cc3)cc2)c2cc[nH]c2n1)C1CC1 [Example 475, N-(4-(4-((4-chlorobenzyl)amino)phenyl)-7H-pyrrolo[2,3-d]pyrimidin-2-yl)cyclopropanecarboxamide]	< 0.02
O=C(Nc1nc(-c2ccc(NS(=O)(=O)N3CCOCC3)cc2)c2cc[nH]c2n1)C1CC1 [Example 235, N-(4-(4-(morpholine-4-sulfonamido)phenyl)-7H-pyrrolo[2,3-d]pyrimidin-2-yl)cyclopropanecarboxamide]	0.02 to 0.2
Cc1cc(C(=O)N(C)CC#N)ccc1-c1cc(NC(=O)C2CC2)nc2[nH]ccc12 [Example 527, N-(cyanomethyl)-4-(6-(cyclopropanecarboxamido)-1H-pyrrolo[2,3-b]pyridin-4-yl)-N,3-dimethylbenzamide]	> 0.2
CC1CN(C(=O)c2ccc[nH]2)CC=C1c1cc(NC(=O)C2CC2)nc2[nH]ccc12 (stereo not drawn) [Example 313, N-(4-(3-methyl-1-(1H-pyrrole-2-carbonyl)-1,2,3,6-tetrahydropyridin-4-yl)-1H-pyrrolo[2,3-b]pyridin-6-yl)cyclopropanecarboxamide]	0.02 to 0.2
N#CCNC(=O)c1c(F)cc(-c2cc(NC(=O)C3CC3)nc3[nH]ccc23)cc1F [Example 529, N-(cyanomethyl)-4-(6-(cyclopropanecarboxamido)-1H-pyrrolo[2,3-b]pyridin-4-yl)-2,6-difluorobenzamide]	0.02 to 0.2
O=C(Nc1cc(-c2ccc(NS(=O)(=O)C3CC3)cc2C(F)(F)F)c2cc[nH]c2n1)C1CC1 [Example 118, N-(4-(4-(cyclopropanesulfonamido)-2-(trifluoromethyl)phenyl)-1H-pyrrolo[2,3-b]pyridin-6-yl)cyclopropanecarboxamide]	0.02 to 0.2
O=C(Nc1cc(C2=CCC(NC3CCN(C(=O)c4cc(F)cc(F)c4)CC3)CC2)c2cc[nH]c2n1)C1CC1 (stereo not drawn) [Example 491, N-(4-(4-((1-(3,5-difluorobenzoyl)piperidin-4-yl)amino)cyclohex-1-en-1-yl)-1H-pyrrolo[2,3-b]pyridin-6-yl)cyclopropanecarboxamide]	> 0.2
N#CCC(=O)N1CCC(c2cc(NC(=O)C3CC3)nc3[nH]ccc23)CC1 [Example 652, N-(4-(1-(2-cyanoacetyl)piperidin-4-yl)-1H-pyrrolo[2,3-b]pyridin-6-yl)cyclopropanecarboxamide]	0.02 to 0.2
CC(C)(C)OC(=O)N1CCN(C(=O)Cc2ccc(-c3cc(NC(=O)C4CC4)nc4[nH]ccc34)cc2)CC1 [Example 554, tert-butyl 4-(2-(4-(6-(cyclopropanecarboxamido)-1H-pyrrolo[2,3-b]pyridin-4-yl)phenyl)acetyl)piperazine-1-carboxylate]	0.02 to 0.2
C[C@@H]1CN(C(=O)C(=Cc2ccccc2)CC#N)CC=C1c1cc(NC(=O)C2CC2)nc2[nH]ccc12 [Example 404, (S)—N-(4-(1-(2-(cyanomethyl)-3-phenylacryloyl)-3-methyl-1,2,3,6-tetrahydropyridin-4-yl)-1H-pyrrolo[2,3-b]pyridin-6-yl)cyclopropanecarboxamide]	0.02 to 0.2
CC(c1ccc(-c2cc(NC(=O)C3CC3)nc3[nH]ccc23)cc1)N1CCS(=O)(=O)CC1 (stereo not drawn) [Example 589, N-(4-(4-(1-(1,1-dioxidothiomorpholino)ethyl)phenyl)-1H-pyrrolo[2,3-b]pyridin-6-yl)cyclopropanecarboxamide]	< 0.02

SMILES	IC50 [µM]
CC1CN(C(=O)c2ccnc(O)c2)CC=C1c1cc(NC(=O)C2CC2)nc2[nH]ccc12 (stereo not drawn) [Example 383, N-(4-(1-(2-hydroxyisonicotinoyl)-3-methyl-1,2,3,6-tetrahydropyridin-4-yl)-1H-pyrrolo[2,3-b]pyridin-6-yl)cyclopropanecarboxamide]	> 0.2
CS(=O)(=O)N1CCN(c2cc(NC(=O)C3CC3)nc3[nH]ccc23)CC1 [Example 660, N-(4-(4-(methylsulfonyl)piperazin-1-yl)-1H-pyrrolo[2,3-b]pyridin-6-yl)cyclopropanecarboxamide]	> 0.2
COc1cc(C(=O)N2CC(NC3CC=C(c4cc(NC(=O)C5CC5)nc5[nH]ccc45)CC3)C2)ccn1 (stereo not drawn) [Example 497, N-(4-(4-((1-(2-methoxyisonicotinoyl)azetidin-3-yl)amino)cyclohex-1-en-1-yl)-1H-pyrrolo[2,3-b]pyridin-6-yl)cyclopropanecarboxamide]	0.02 to 0.2
O=C(Nc1nc(-c2ccc(NS(=O)(=O)CCC(F)(F)F)cc2)c2cc[nH]c2n1)C1CC1 [Example 194, N-(4-(4-((3,3,3-trifluoropropyl)sulfonamido)phenyl)-7H-pyrrolo[2,3-d]pyrimidin-2-yl)cyclopropanecarboxamide]	< 0.02
N#CCC(=O)N1CC=C(c2cc(NC(=O)c3ccco3)nc3[nH]ccc23)CC1 [Example 301, N-(4-(1-(2-cyanoacetyl)-1,2,3,6-tetrahydropyridin-4-yl)-1H-pyrrolo[2,3-b]pyridin-6-yl)furan-2-carboxamide]	> 0.2
O=C(Nc1cc(-c2ccc(NCC3CCCCC3)cc2)c2cc[nH]c2n1)C1CC1 [Example 471, N-(4-(4-((cyclohexylmethyl)amino)phenyl)-1H-pyrrolo[2,3-b]pyridin-6-yl)cyclopropanecarboxamide]	> 0.2
CC(Br)CC(=O)N1CC=C(c2cc(NC(=O)C3CC3)nc3[nH]ccc23)C(C)C1 (stereo not drawn) [Example 338, N-(4-(1-(3-bromobutanoyl)-3-methyl-1,2,3,6-tetrahydropyridin-4-yl)-1H-pyrrolo[2,3-b]pyridin-6-yl)cyclopropanecarboxamide]	0.02 to 0.2
CCS(=O)(=O)Nc1ccc(-c2cc(NCC3CC3)nc3[nH]ccc23)cc1F [Example 713, N-(4-(6-((cyclopropylmethyl)amino)-1H-pyrrolo[2,3-b]pyridin-4-yl)-2-fluorophenyl)ethanesulfonamide]	> 0.2
N#Cc1ccc(C(=O)N2CC=C(c3cc(NC(=O)C4CC4)nc4[nH]ccc34)CC2)cc1 [Example 293, N-(4-(1-(4-cyanobenzoyl)-1,2,3,6-tetrahydropyridin-4-yl)-1H-pyrrolo[2,3-b]pyridin-6-yl)cyclopropanecarboxamide]	0.02 to 0.2
CCS(=O)(=O)Nc1ccc(-c2cc(NC(=O)C3CC3)nc3[nH]cnc23)cc1 [Example 207, N-(7-(4-(ethylsulfonamido)phenyl)-3H-imidazo[4,5-b]pyridin-5-yl)cyclopropanecarboxamide]	> 0.2
O=C(Nc1cc(-c2ccc(NS(=O)(=O)N3CCOCC3)c(F)c2)c2cc[nH]c2n1)C1CC1 [Example 226, N-(4-(3-fluoro-4-(morpholine-4-sulfonamido)phenyl)-1H-pyrrolo[2,3-b]pyridin-6-yl)cyclopropanecarboxamide]	< 0.02
CC1CN(C(=O)CC#N)CC=C1c1cc(NC(=O)C2CC2)nc2[nH]ccc12 (stereo in doubt) [Example 305, (R)—N-(4-(1-(2-cyanoacetyl)-3-methyl-1,2,3,6-tetrahydropyridin-4-yl)-1H-pyrrolo[2,3-b]pyridin-6-yl)cyclopropanecarboxamide]	0.02 to 0.2
O=C(Nc1cc(-c2ccc(NS(=O)(=O)N3CCS(=O)(=O)CC3)cc2)c2cc[nH]c2n1)C1CC1 [Example 229, N-(4-(4-((1,1-dioxidothiomorpholine)-4-sulfonamido)phenyl)-1H-pyrrolo[2,3-b]pyridin-6-yl)cyclopropanecarboxamide]	< 0.02
CC(C)(C)OC(=O)N1CCC=C(c2cc(NC(=O)C3CC3)nc3[nH]ccc23)C1 [Example 460, tert-butyl 5-(6-(cyclopropanecarboxamido)-1H-pyrrolo[2,3-b]pyridin-4-yl)-3,6-dihydropyridine-1 (2H)-carboxylate]	> 0.2
O=C(Nc1cc(-c2ccc(NS(=O)(=O)C3CCC3)cc2)c2cc[nH]c2n1)C1CC1 [Example 58, N-(4-(4-(cyclobutanesulfonamido)phenyl)-1H-pyrrolo[2,3-b]pyridin-6-yl)cyclopropanecarboxamide]	< 0.02
CCCCNC(=S)N1CCC(c2cc(NC(=O)C3CC3)nc3[nH]ccc23)CC1 [Example 659, N-(4-(1-(butylcarbamothioyl)piperidin-4-yl)-1H-pyrrolo[2,3-b]pyridin-6-yl)cyclopropanecarboxamide]	> 0.2

Reference: patent US11524968B2, “Heterocyclic compound as a protein kinase inhibitor” (HK inno.N Corporation, priority 2017, dated 2022)
